Source: patent US20140086938A1, “METHODS OF INHIBITING TUMOR GROWTH USING TTK ANTAGONISTS” (University Health Network, priority 2007, published 2014)

How the values were obtained:
Experiment in all cases: SP600125 SRB growth inhibition
Type in all cases: cell-based
[1] = test system: 184A; conditions: Homo sapiens, 120 h, SRB assay 5 days after addition
Experimental: (§1) Compound SP600125 was purchased from Biomol International (PA, USA). 10 mM stock was prepared in 100% DMSO. Cells were seeded at various numbers, ranging from 1500 to 4000 per 80 μl in each well according to cell growth rate, into 96 well plates, 24 hours before compound overlay. The 10 mM SP600125 compounds stock in 100% DMSO was diluted with Opti-MEM I Reduced-Serum Medium (Invitrogen, Burlington, ON, Canada) to concentrations range from 50 nM to 250 μM. 20 μl from each concentration was overlay to cells to make the final concentrations range from 10 nM to 50 μM. The cells were cultured for 5 days before Sulforhodamine B assay. SRB assay is performed to assess cell survival. SRB is a water-soluble dye that binds to the basic amino acids of the cellular proteins. Thus, colorimetric measurement of the bound dye provides an estimate of the total protein mass that is related to the cell number. the cells are fixed in situ by gently aspirating off the culture media and adding 50 μl ice cold 10% Tri-chloroacetic Acid (TCA) per well and incubate at 4° C. for 30-60 min. The plates are washed with tap water five times and allowed to air dry for 5 min. Add 50 μl 0.4% (w/v) Sulforhodamine B solution in 1% (v/v) acetic acid per well and incubate for 30 min at RT for staining. Following staining, plates are washed four times with 1% acetic acid to remove any unbound dye and then allowed to air dry for 5 min. Stain is solubilized with 100 ul of 10 mM Tris pH 10.5 per well. Absorbance is read at 570 nm. The cell survival percentage in each compound concentration was calculated over the cell DMSO control, which was growing in the presence of 0.1% DMSO (0.5% in the case of 50 μM compounds). The GI50 were calculated using GraphPad PRISM software.
(§2) Cell viability was assessed using the SRB assay described herein, which was performed 5 days after the addition of SP600125 to the culture media. Prism software was used to calculate GI50 (concentration of the compound required to achieve 50% growth inhibition) (Table 3).

[2] = test system: BT474; conditions: Homo sapiens, BT-474, 120 h, SRB assay 5 days after addition
Experimental: as §1, §2

[3] = test system: HCC1419; conditions: Homo sapiens, 120 h, SRB assay 5 days after addition
Experimental: as §1, §2

[4] = test system: Hs578T; conditions: Homo sapiens, Hs-578T, 120 h, SRB assay 5 days after addition
Experimental: as §1, §2

[5] = test system: MCF-7; conditions: Homo sapiens, MCF7, 120 h, SRB assay 5 days after addition
Experimental: as §1, §2

[6] = test system: MDA-MB-231; conditions: Homo sapiens, 120 h, SRB assay 5 days after addition
Experimental: as §1, §2

[7] = test system: MDA-MB-330; conditions: Homo sapiens, 120 h, SRB assay 5 days after addition
Experimental: as §1, §2

[8] = test system: MDA-MB-435; conditions: Homo sapiens, 120 h, SRB assay 5 days after addition
Experimental: as §1, §2

[9] = test system: MDA-MB-453; conditions: Homo sapiens, 120 h, SRB assay 5 days after addition
Experimental: as §1, §2

[10] = test system: MDA-MB-468; conditions: Homo sapiens, 120 h, SRB assay 5 days after addition
Experimental: as §1, §2

[11] = test system: SKBr-3; conditions: Homo sapiens, SK-BR-3, 120 h, SRB assay 5 days after addition
Experimental: as §1, §2

[12] = test system: T47D; conditions: Homo sapiens, 120 h, SRB assay 5 days after addition
Experimental: as §1, §2

## Oc1c2ccccc2c2c3c(cccc13)N=N2 [SP600125, anthra(1,9-cd)pyrazol-6(2H)-one 1,9-pyrazoloanthrone]
[1]
  GI50: 1590 nM
[2]
  GI50: 8580 nM
[3]
  GI50: 10000 nM
[4]
  GI50: 1840 nM
[5]
  GI50: 672 nM
[6]
  GI50: 894 nM
[7]
  GI50: 7020 nM
[8]
  GI50: 822 nM
[9]
  GI50: 2300 nM
[10]
  GI50: 483 nM
[11]
  GI50: 812 nM
[12]
  GI50: 2520 nM
